Test results reported in PMC7719495 (BioMed Research International, 2020).

Columns and labels:
plasma protein [1] = test system: plasma protein; design: method as in earlier work; conditions: cited from earlier work
[2] = HPLC analysis of the content of AMPB in mice plasma and brain tissue; assay type: in vivo, KM mice; conditions: compared with AMPB group; AMPB 3 mg/kg iv q.d.; POS 90 mg/kg gavage, zosuquidar 20 mg/kg, Ko143 10 mg/kg, elacridar 2.5 mg/kg iv, b.i.d. 4 days; 4 h after last administration
Procedure: POS, zosuquidar, Ko143, and elacridar were administered for 4 consecutive days (b.i.d., 9 a.m. and 9 p.m).
4 h after the last administration, the mouse eyeball was taken for blood sample acquisition, in a commercial 1.5 mL centrifuge tube containing the anticoagulant EDTA, with sterilized ophthalmic bending forceps. Samples were centrifuged at 3000 rpm for 10 min. And the bottom plasma was gently extracted and separated with micropipeter. Then, plasma proteins were precipitated by adding 300 μL methanol to 100 μL plasma, followed by vortex for 10 s and let it stand for 5 min. After that, the samples were centrifuged at 4°C, 13000 rpm, for 10 min. Finally, the plasma test solution was fulfilled by filtering it through the 0.22 μm microporous membrane.
After the completion of blood, the mice brain was quickly removed. Moderate brain tissue samples were mixed with physiological saline for homogenate preparation. And proteins were precipitated by adding 300 μL methanol to 100 μL homogenate, followed by vortex for 10 s, and let it stand for 5 min, and then centrifuged at 4°C, 13000 rpm, for 10 min. Finally, the brain test solution was fulfilled by filtering it through the 0.22 μm microporous membrane. […] The analytical column was a Diamonsil (2) C18 column (250 mm ×4.6 mm, 5 μm) maintained at 30°C. The mobile phase consisted of 10 mM ammonium acetate aqueous solution (PH4) and acetonitrile, with the flow rate of 1.0 mL/min and the injection volume of 50 μL.

[3] = test system: mice brain capillary endothelial cells (BCECs); experiment: AMPB uptake by BCECs, HPLC; assay type: cell-based; conditions: 30, 60, 120, 180 min, compared with AMPB group
Procedure: The mice brain capillary endothelial cells (BCECs, cat. no. BNCC35187) were purchased from Beijing Beina Chuanglian Biotechnology Research Institute (Beijing, China). BCECs were resuscitated in a constant temperature water bath at 37°C and then inoculated in a petri dish. The cells were cultured with the 1640 medium containing 10% FBS in a 5% CO2 cell incubator at 37°C. The culture medium was changed every other day, and the cells were digested with 0.25% trypsin when they converged and proliferated to form a full layer at the bottom of the dish. 1 mL cell suspensions were seeded in 12-well plates at a density of 1 × 10^5 cells/mL per well. The drug was administered after the cells being completely adherent to the wall. 2.16 μM AMBP solution was prepared with the 1640 medium and then was used to prepare POS solution at concentrations of 2.85 μM, 5.71 μM, and 11.42 μM, 5 μM zosuquidar, 5 μM Ko143, 1 mM elacridar, and 40 g/L albumin solution, respectively.
The cells were randomly divided into the following 8 groups: 2.16 μM AMBP, 2.16 μM AMBP+POS (2.85 μM, 5.71 μM, and 11.42 μM), 2.16 μM AMBP+5 μM zosuquidar, 2.16 μM AMBP+5 μM Ko143, 2.16 μM AMBP+1 mM elacridar, and 2.16 μM AMBP+40 g/L albumin. Three wells were set at each time point in each group and cultured at 37°C. Cell samples were collected at 30 min, 60 min, 120 min, and 180 min after drug administration, respectively. BCECs were eluted with Hanks' balanced salt solution for 3 times and then incubated with 1% Triton X-100 (200 μL/per well) at 4°C for 12 h to lyse the cells.

plasma protein [4] = experiment: Balanced (equilibrium) dialysis of free AMPB in in vitro plasma; assay type: in vitro ADME, mouse; conditions: 37°C, 6 h
Procedure: (§1) The equilibrium dialysis experiments were performed by the Thermo Fisher Scientific rapid equilibrium dialysis (RED) device. […] The prepared sample solutions were added into the holes of RED plate, respectively, with a 300 μL sample loading. In the corresponding buffer holes, 550 μL, 1% Triton X-100 solution was added. After the sample loading was completed, the sample was put into a 37°C constant temperature oscillator, and the dialysis was balanced at 100 rpm for 6 h. […] And then, the protein or drug-protein complexes with a molecular weight ≥ […] were retained by adding 1 mL of drug-containing plasma mixture into the Centrifree® overfiltration unit and centrifuging it at 13000 rpm and 4°C for 20 min.

plasma protein [5] = experiment: Ultrafiltration analysis of free AMPB in in vitro plasma; assay type: in vitro ADME; conditions: 37°C, 2 h, p < 0.0001 vs AMPB group
Procedure: as §1

Cryptococcus neoformans [6] = experiment: H&E staining of brain pathology in mice with cryptococcal meningitis; assay type: in vivo; conditions: AMPB 3 mg/kg, POS 180 mg/kg, 14 days, compared with model group
Procedure: Except the control group, the mice in the other four groups were all injected with the lateral ventricular cryptococcus suspension at the dose of 1 × 10^8 CFU/mL, 5 μL for each mouse [19]. And the control group was injected with the same volume of normal saline. […] After 5 days, mice in each group were administered with the corresponding drugs mentioned above, continuously for 14 days. […] The mice were then anesthetized with ether for 24 h after the last administration. Next, the brain tissue was promptly removed for H&E staining and colonization detection of Cryptococcus neoformans. The mouse brain tissue was fixed with 4% paraformaldehyde at 25°C for 24 h, followed by washing with running water for 0.5 h [20, 21]. The brain was then dehydrated with 75%, 85%, 95%, and anhydrous ethanol for 6 h, 10 h, 4 h, and 2 h, respectively. After permeabilization with xylene I for 20 min and xylene II for 15 min, the brain was embedded in paraffin for 3 h and then cut into 5 μm slices using a microtome (RM2235, Leica Biosystems, Wetzlar, Germany) and roasted at 60°C. After dewaxing with xylene, the slices were stained with hematoxylin and eosin. Random photographs of three fields were acquired using a CX22 light microscope at ×400 magnification (Olympus Corporation, Tokyo, Japan).

Cryptococcus neoformans [7] = experiment: Counting of Cryptococcus neoformans colonies in the brain tissue; assay type: in vivo; conditions: cryptococcal meningitis mice; AMPB 3 mg/kg, POS 180 mg/kg, 14 days; p < 0.01 compared with model group
Procedure: Except the control group, the mice in the other four groups were all injected with the lateral ventricular cryptococcus suspension at the dose of 1 × 10^8 CFU/mL, 5 μL for each mouse [19]. And the control group was injected with the same volume of normal saline. […] After 5 days, mice in each group were administered with the corresponding drugs mentioned above, continuously for 14 days. And the time and frequency of administration are described above. The mice were then anesthetized with ether for 24 h after the last administration. Next, the brain tissue was promptly removed for H&E staining and colonization detection of Cryptococcus neoformans. The brain tissue was homogenized with normal saline at a ratio of 1 : 1 (g : v). And then, 100 μL homogenate suspension was gradient diluted to concentrations of 1, 0.1, 0.01, and 0.001 g/mL. At each concentration, 10 μL of brain tissue suspension was uniformly applied to yeast extract peptone dextrose medium and cultured in a 30°C incubator for 48 h [22]. Then, the colony count of cryptococcus neoformans was performed.

[8] = 5 μM zosuquidar, 5 μM Ko143 or 1 mM elacridar + 2.16 μM AMPB

C[C@@H]1[C@H](O)[C@@H](C)/C=C/C=C/C=C/C=C/C=C/C=C/C=C/[C@H](O[C@@H]2O[C@H](C)[C@@H](O)[C@H](N)[C@@H]2O)C[C@@H]2O[C@](O)(C[C@@H](O)C[C@@H](O)[C@H](O)CC[C@@H](O)C[C@@H](O)CC(=O)O[C@H]1C)C[C@H](O)[C@H]2C(=O)O [AMPB, amphotericin B]
plasma protein binding rate (plasma protein [1]): 90%

COc1ccc2c3c([nH]c2c1)[C@H](CC(C)C)N1C(=O)[C@H](CCC(=O)OC(C)(C)C)NC(=O)[C@@H]1C3 [Ko143]
AMPB brain tissue/plasma drug ratio [2]: no effect | brain tissue concentration of AMPB [2]: no effect | plasma drug concentration of AMPB [2]: no effect | effect on AMPB uptake by BCECs [3, 8]: no significant effect

CC[C@@H]([C@H](C)O)n1ncn(-c2ccc(N3CCN(c4ccc(OC[C@@H]5CO[C@@](Cn6cncn6)(c6ccc(F)cc6F)C5)cc4)CC3)cc2)c1=O [POS, posaconazole]
effect on plasma free AMPB (balanced dialysis) (plasma protein [4]; POS 4 μg/mL + AMPB 0.5 μg/mL in mouse plasma, p < 0.05 vs AMPB group): prominently elevate | effect on plasma free AMPB (balanced dialysis) (plasma protein [4]; POS 8 μg/mL + AMPB 0.5 μg/mL in mouse plasma, p < 0.01 vs AMPB group): prominently elevate | effect on plasma concentration of free AMPB (ultrafiltration) (plasma protein [5]; POS 4 μg/mL + AMPB 2.0 μg/mL in plasma): potentially increase | effect on plasma concentration of free AMPB (ultrafiltration) (plasma protein [5]; POS 8 μg/mL + AMPB 2.0 μg/mL in plasma): potentially increase | effect on AMPB uptake by BCECs ([3]; POS 2.85, 5.71 and 11.42 μM + 2.16 μM AMPB): no significant effect | cortical pathological injuries (inflammatory cell infiltration, bleeding), H&E staining (Cryptococcus neoformans [6]): improve the above pathological injuries | number of cryptococcus neoformans in the brain (colony culture) (Cryptococcus neoformans [7]): evidently inhibit | plasma protein binding rate (plasma protein [1]): 98%

COc1cc2c(cc1OC)CN(CCc1ccc(NC(=O)c3cccc4c(=O)c5cccc(OC)c5[nH]c34)cc1)CC2 [elacridar]
effect on AMPB uptake by BCECs [3, 8]: no significant effect

O[C@@H](COc1cccc2ncccc12)CN1CCN([C@@H]2c3ccccc3[C@@H]3[C@H](c4ccccc42)C3(F)F)CC1 [zosuquidar]
effect on AMPB uptake by BCECs [3, 8]: no significant effect
